The source of these data is ChEMBL document CHEMBL4190401, “Lung cancer and matrix metalloproteinases inhibitors of polyphenols from Selaginella tamariscina with suppression activity of migration” (Bioorg Med Chem Lett, 2018).

Calls of active or inactive are those of the source. No cut-off for these calls is given here.

The target of experiment [1] is 72 kDa type IV collagenase (Homo sapiens, UniProt P08253). Nature of the experiment: Inhibition of recombinant human MMP2 preincubated for 30 mins followed by McaPro-Leu-Gly-Leu-Dpa-Ala-Arg-NH2 substrate addition measured by fluorescence assay.
72 kDa type IV collagenase, sequence (P08253 whole entry): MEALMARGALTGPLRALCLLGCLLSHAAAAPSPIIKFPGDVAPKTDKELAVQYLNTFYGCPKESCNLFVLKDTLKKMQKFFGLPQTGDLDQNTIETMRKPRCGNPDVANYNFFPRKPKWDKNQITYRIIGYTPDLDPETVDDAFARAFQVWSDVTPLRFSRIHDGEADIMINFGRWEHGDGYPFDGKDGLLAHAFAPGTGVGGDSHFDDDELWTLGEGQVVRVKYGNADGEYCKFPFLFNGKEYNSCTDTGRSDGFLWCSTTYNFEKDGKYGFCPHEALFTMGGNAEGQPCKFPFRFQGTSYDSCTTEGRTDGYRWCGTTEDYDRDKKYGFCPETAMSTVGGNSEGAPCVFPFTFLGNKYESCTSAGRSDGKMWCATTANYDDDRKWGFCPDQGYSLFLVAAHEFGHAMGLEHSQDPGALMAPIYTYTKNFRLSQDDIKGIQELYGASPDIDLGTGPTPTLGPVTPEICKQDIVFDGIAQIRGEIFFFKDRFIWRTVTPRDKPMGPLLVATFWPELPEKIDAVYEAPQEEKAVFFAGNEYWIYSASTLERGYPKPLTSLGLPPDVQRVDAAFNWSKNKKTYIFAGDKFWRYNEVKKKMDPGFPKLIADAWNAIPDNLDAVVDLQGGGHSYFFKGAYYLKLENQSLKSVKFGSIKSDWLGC
For experiment [2], the system named is MGC-803. Nature of the experiment: Cytotoxicity against human MGC803 cells assessed as reduction in cell viability after 48 hrs by MTT assay. It counts as functional, cell-based. Conditions: MGC-803, 48 h.
In experiment [3] the test system is HepG2. Nature of the experiment: Cytotoxicity against human HepG2 cells assessed as reduction in cell viability after 48 hrs by MTT assay. It counts as functional, cell-based. Conditions: HepG2, 48 h.
Experiment [4] has as its system A549. Description: Cytotoxicity against human A549 cells assessed as reduction in cell viability after 48 hrs by MTT assay. It counts as functional, cell-based. Conditions: A549, 48 h.
Experiment [5] deals with T-24. Description: Cytotoxicity against human T24 cells assessed as reduction in cell viability after 48 hrs by MTT assay. Conditions: T-24, 48 h. It counts as functional, cell-based.
The target of experiment [6] is Stromelysin-1 (Homo sapiens, UniProt P08254). Nature of the experiment: Inhibition of recombinant human MMP3 preincubated for 30 mins followed by McaPro-Leu-Gly-Leu-Dpa-Ala-Arg-NH2 substrate addition measured by fluorescence assay.
Stromelysin-1, sequence (P08254 whole entry): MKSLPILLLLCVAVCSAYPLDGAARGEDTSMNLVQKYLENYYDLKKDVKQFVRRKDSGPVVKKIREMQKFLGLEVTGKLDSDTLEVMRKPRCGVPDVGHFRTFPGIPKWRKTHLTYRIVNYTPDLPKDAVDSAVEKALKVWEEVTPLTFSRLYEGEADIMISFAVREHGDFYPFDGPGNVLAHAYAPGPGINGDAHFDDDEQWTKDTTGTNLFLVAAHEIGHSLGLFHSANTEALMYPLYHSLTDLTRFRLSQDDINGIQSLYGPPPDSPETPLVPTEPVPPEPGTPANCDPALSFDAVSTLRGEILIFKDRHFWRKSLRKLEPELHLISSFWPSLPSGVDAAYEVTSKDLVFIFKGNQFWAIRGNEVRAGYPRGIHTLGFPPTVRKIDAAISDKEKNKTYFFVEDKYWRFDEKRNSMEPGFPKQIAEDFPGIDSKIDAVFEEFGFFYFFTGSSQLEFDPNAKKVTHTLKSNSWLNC
The target of experiment [7] is T1, Matrix metalloproteinase-9 (Homo sapiens, UniProt P14780). Description: Inhibition of recombinant human MMP9 preincubated for 30 mins followed by McaPro-Leu-Gly-Leu-Dpa-Ala-Arg-NH2 substrate addition measured by fluorescence assay.
T1 sequence (P14780 whole entry): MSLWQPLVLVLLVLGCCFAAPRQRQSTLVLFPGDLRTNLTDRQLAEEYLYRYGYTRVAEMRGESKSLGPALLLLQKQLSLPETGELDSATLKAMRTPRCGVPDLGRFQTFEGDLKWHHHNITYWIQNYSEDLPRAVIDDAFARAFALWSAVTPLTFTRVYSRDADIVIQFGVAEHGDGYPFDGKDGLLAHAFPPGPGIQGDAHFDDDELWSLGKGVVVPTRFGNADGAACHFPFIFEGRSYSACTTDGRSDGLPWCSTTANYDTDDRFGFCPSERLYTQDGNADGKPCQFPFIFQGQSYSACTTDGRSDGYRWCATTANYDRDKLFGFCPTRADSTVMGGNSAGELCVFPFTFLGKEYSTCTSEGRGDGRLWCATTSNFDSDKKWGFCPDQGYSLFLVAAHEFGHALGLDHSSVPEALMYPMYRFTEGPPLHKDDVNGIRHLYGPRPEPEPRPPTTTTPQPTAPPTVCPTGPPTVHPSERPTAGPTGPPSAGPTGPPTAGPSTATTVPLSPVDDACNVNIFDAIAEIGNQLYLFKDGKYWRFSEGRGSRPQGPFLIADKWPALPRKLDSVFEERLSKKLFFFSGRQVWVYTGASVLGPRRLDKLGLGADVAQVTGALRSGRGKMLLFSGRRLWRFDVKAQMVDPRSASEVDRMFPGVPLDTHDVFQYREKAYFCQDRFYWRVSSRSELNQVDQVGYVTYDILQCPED
For experiment [8], the system named is A549. Description: Antimigratory activity against human A549 cells assessed as inhibition of wound healing at 10 to 20 uM after 24 hrs by phase contrast microscopic method. It counts as functional, cell-based.
For experiment [9], the target named is T1, Matrix metalloproteinase-9. Nature of the experiment: Binding affinity to MMP9 (unknown origin) by SPR assay.
Experiment [10] deals with A549. Description: Induction of apoptosis in human A549 cells assessed as live cells at 10 uM after 24 hrs by Annexin V-FITC/propidium iodide staining based flow cytometry (reference value: 91.9%). It counts as functional.
Experiment [11] has as its system A549. Nature of the experiment: Induction of apoptosis in human A549 cells assessed as live cells at 20 uM after 24 hrs by Annexin V-FITC/propidium iodide staining based flow cytometry (reference value: 91.9%). It counts as functional.
Experiment [12] concerns A549. Nature of the experiment: Induction of apoptosis in human A549 cells assessed as live cells at 40 uM after 24 hrs by Annexin V-FITC/propidium iodide staining based flow cytometry (reference value: 91.9%). It counts as functional.
Experiment [13] has as its system A549. Nature of the experiment: Induction of apoptosis in human A549 cells assessed as early apoptotic cells at 10 uM after 24 hrs by Annexin V-FITC/propidium iodide staining based flow cytometry (reference value: 1.2%). It counts as functional.
Experiment [14] concerns A549. Nature of the experiment: Induction of apoptosis in human A549 cells assessed as early apoptotic cells at 20 uM after 24 hrs by Annexin V-FITC/propidium iodide staining based flow cytometry (reference value: 1.2%). It counts as functional.
Experiment [15] has as its system A549. Nature of the experiment: Induction of apoptosis in human A549 cells assessed as early apoptotic cells at 40 uM after 24 hrs by Annexin V-FITC/propidium iodide staining based flow cytometry (reference value: 1.2%). It counts as functional.
For experiment [16], the system named is A549. Nature of the experiment: Induction of apoptosis in human A549 cells assessed as late apoptotic cells at 10 uM after 24 hrs by Annexin V-FITC/propidium iodide staining based flow cytometry (reference value: 2.8%). It counts as functional.
Experiment [17] concerns A549. Nature of the experiment: Induction of apoptosis in human A549 cells assessed as late apoptotic cells at 20 uM after 24 hrs by Annexin V-FITC/propidium iodide staining based flow cytometry (reference value: 2.8%). It counts as functional.
The subject of experiment [18] is A549. Description: Induction of apoptosis in human A549 cells assessed as late apoptotic cells at 40 uM after 24 hrs by Annexin V-FITC/propidium iodide staining based flow cytometry (reference value: 2.8%). It counts as functional.
The test system of experiment [19] is A549. Description: Induction of apoptosis in human A549 cells after 24 hrs by Annexin V-FITC/propidium iodide staining based flow cytometry. It counts as functional, cell-based.
Experiment [20] concerns A549. Description: Induction of apoptosis in human A549 cells at 10 to 40 uM after 24 hrs by acridine orange/ethidium bromide double staining based fluorescence microscopic method. It counts as functional, cell-based.
Experiment [21] relates to A549. Nature of the experiment: Induction of apoptosis in human A549 cells assessed as increase in caspase-3 level after 24 hrs by Western blot method. It counts as functional, cell-based.
Experiment [22] has as its system A549. Nature of the experiment: Induction of apoptosis in human A549 cells assessed as increase in caspase-9 level at 10 to 40 uM after 24 hrs by Western blot method. It counts as functional, cell-based.
Experiment [23] concerns A549. Description: Induction of apoptosis in human A549 cells assessed as increase in Bax level after 24 hrs by Western blot method. It counts as functional, cell-based.
The test system of experiment [24] is A549. Description: Induction of apoptosis in human A549 cells assessed as decrease in Bcl-2 level at 10 to 40 uM after 24 hrs by Western blot method. It counts as functional, cell-based.

On to `COc1ccc(C2CC(=O)c3c(O)cc(O)cc3O2)cc1-c1c(O)cc(O)c2c(=O)cc(-c3ccc(O)cc3)oc12` (stereo not given), for which the IC50 in [1] was found to be 45.8 µM; in experiment [2], 36.5 µM; in experiment [3] it was 35 µM; in experiment [4], 31.2 µM; in experiment [5], 34.9 µM; in [6] (read-out: IC50), 74.3 µM. Besides, the half-inhibitory concentration (IC50) in [7] is 29.3 µM.
Consider `COc1ccc(-c2cc(=O)c3c(O)cc(O)cc3o2)cc1-c1c(O)cc(O)c2c(=O)cc(-c3ccc(O)cc3)oc12` [BILOBETIN], for which the IC50 was more than 100 µM in experiment [1]; more than 50 µM in experiment [2]; more than 50 µM in [3]; more than 50 µM in [4]; more than 50 µM in experiment [5]; more than 100 µM in [6] (read-out: IC50). Moreover, the IC50 in experiment [7] was 10.3 µM.
As for `COc1ccc(-c2cc(=O)c3c(O)cc(O)cc3o2)cc1-c1c(O)cc2c(c1O)C(=O)CC(c1ccc(O)cc1)O2` (stereo not given), the IC50 was more than 100 µM in experiment [1]; more than 50 µM in [2]; more than 50 µM in experiment [3]; more than 50 µM in experiment [4]; more than 50 µM in [5]; “Not Active” in experiment [6]. Also, in experiment [7], the 50% inhibitory concentration (IC50) is 37.4 µM.
As for `O=C(/C=C(\c1ccccc1)c1c(-c2ccc(O)cc2)cccc1-c1ccc(O)cc1)c1ccc(O)cc1`, the IC50 in [1] was more than 100 µM; in experiment [2], more than 50 µM; in [3], more than 50 µM; in experiment [4], more than 50 µM; in experiment [5], more than 50 µM; in experiment [6] (read-out: IC50) it was more than 100 µM. The IC50 in experiment [7] amounted to 24.7 µM.
For `O=C(O)c1c(-c2ccc(O)cc2)ccc(CO)c1C#Cc1ccc(O)cc1`, the IC50 in experiment [1] was determined as 85.3 µM; in [2] it was 32.6 µM; in [3], 30.2 µM; in experiment [4], 34.1 µM; in experiment [5], 37.1 µM; in experiment [6] (read-out: IC50) it was 82.6 µM. The IC50 in [7] worked out at 41 µM.
Turning to `COc1ccc(-c2cc(=O)c3c(O)cc(O)cc3o2)cc1-c1c(O)cc2oc(-c3ccc(O)cc3)cc(=O)c2c1O`, the IC50 in experiment [1] was more than 100 µM; in experiment [2], 21.8 µM; in experiment [3], 26.6 µM; in [4] it was 25.6 µM; in [5] it was 25.8 µM; in experiment [6] (read-out: IC50) it was 37.3 µM. For the same compound, in experiment [7], the half-inhibitory concentration (IC50) was determined as 26.1 µM.
As to `CC[C@@]1(O)C(=O)OCc2c1cc1n(c2=O)Cc2cc3cc(O)ccc3nc2-1` [HYDROXYCAMPTOTHECIN], the IC50 in experiment [2] was 6.55 µM; in experiment [3], 3.19 µM; in [4], 1.75 µM; in experiment [5] it was 11.8 µM.
In the case of `COc1ccc(C2CC(=O)c3c(O)cc(O)cc3O2)cc1-c1c(O)cc2c(c1O)C(=O)CC(c1ccc(O)cc1)O2` (stereo not given), the IC50 in experiment [1] was 35.7 µM; in experiment [2], 26 µM; in [3], 28.2 µM; in [4], 27.7 µM; in experiment [5] it was 27.4 µM; in experiment [6] it was “Not Active”. Also, the IC50 in experiment [7] turned out to be 25.4 µM.
Regarding `O=C1OCc2ccc(-c3ccc(O)cc3)c(C(=O)c3ccc(O)cc3)c21`, the IC50 is 81.2 µM in experiment [1]; 26.4 µM in [2]; 24.8 µM in [3]; 21.9 µM in [4]; 23.4 µM in [5]; 40.9 µM in experiment [6] (read-out: IC50). For the same compound, in [7], the IC50 was determined as 36 µM.
Turning to `O=c1cc(-c2ccc(O)c(-c3c(O)cc4oc(-c5ccc(O)cc5)cc(=O)c4c3O)c2)oc2cc(O)cc(O)c12` [ROBUSTAFLAVONE], the IC50 was 10.2 µM in experiment [1]; 15.6 µM in [2]; 19.2 µM in experiment [3]; 21.4 µM in experiment [4]; 21.1 µM in experiment [5]; “Not Active” in experiment [6]. Moreover, the IC50 in [7] came out at 11.8 µM.
Take `O=C1OC(c2ccc(O)cc2)(c2ccc(O)cc2)c2c(-c3ccc(O)cc3)ccc(CO)c21`: the concentration for half-maximal inhibition (IC50) came to 53.7 µM in experiment [1]; 13.8 µM in [2]; 15.4 µM in experiment [3]; 11 µM in [4]; 12.7 µM in experiment [5]; 87.8 µM in experiment [6] (read-out: IC50). In addition, in [7], the IC50 came out at 18.3 µM.
`O=C(c1ccc(O)cc1)c1cc(-c2ccc(O)cc2)c(-c2ccc(O)cc2)c(-c2ccc(O)cc2)c1`: the IC50 in [1] was 54.2 µM; in [2], more than 50 µM; in experiment [3], more than 50 µM; in experiment [4], more than 50 µM; in experiment [5], more than 50 µM; in [6] (read-out: IC50) it was 66.1 µM. Further, the IC50 in experiment [7] is more than 100 µM.
Consider `O=c1cc(-c2ccc(O)c(-c3c(O)cc(O)c4c(=O)cc(-c5ccc(O)cc5)oc34)c2)oc2cc(O)cc(O)c12` [AMENTOFLAVONE], for which the concentration for half-maximal inhibition (IC50) in experiment [1] was 30.3 µM; in experiment [2], 9.86 µM; in experiment [3] it was 9.13 µM; in [4] it was 8.36 µM; in experiment [5] it was 10.7 µM; in [6] (read-out: IC50), more than 100 µM. The IC50 in [7] is 2.58 µM. Besides, the outcome in experiment [8], in [20], in [22] and in experiment [24] was Active. The same compound displayed a Kd in experiment [9] of 2.18 µM. Moreover, the Activity in [10] is 86%; in experiment [11], 59%; in experiment [12], 57.2%; in experiment [13] it was 2.5%; in experiment [14], 9.5%; in experiment [15] it was 6.4%. Besides, the Activity was 7.9% in [16]; 28.3% in experiment [17]; 34.3% in experiment [18]; “Dose-dependent effect” in experiment [19]; “Dose-dependent effect” in experiment [21]; “Dose-dependent effect” in experiment [23].
